From ChEMBL document CHEMBL4316608, “Artemisinin-indole and artemisinin-imidazole hybrids: Synthesis, cytotoxic evaluation and reversal effects on multidrug resistance in MCF-7/ADR cells” (Bioorg Med Chem Lett, 2019)
Where a name gives a salt, the structure may show the parent alone.

Key:
ADR5000 cell line = assay: Cytotoxicity against human CEM/ADR5000 cells by XTT assay; type: functional, cell-based
CCRF-CEM = assay: Cytotoxicity against human CCRF-CEM cells by XTT assay; type: functional, cell-based
HepG2 = assay: Antiproliferative activity against human HepG2 cells measured after 48 hrs by MTT assay; type: functional, cell-based; details: HepG2, 48 h
A549 = assay: Antiproliferative activity against human A549 cells measured after 48 hrs by MTT assay; type: functional, cell-based; details: A549, 48 h
NCI/ADR-RES = assay: Potentiation of adriamycin-induced antiproliferative activity against human MCF7/ADR cells assessed as fold reduction in adriamycin IC50 at 5 uM measured after 48 hrs by MTT assay; type: functional
[1] = Toxicity in human MCF7 cells assessed as inhibition of cell proliferation at 5 uM measured after 48 hrs by MTT assay; type: cell-based
MDA-MB-231 = assay: Antiproliferative activity against human MDA-MB-231 cells measured after 48 hrs by MTT assay; type: functional, cell-based; details: MDA-MB-231, 48 h
MCF7 [2] = assay: Antiproliferative activity against human MCF7 cells measured after 48 hrs by MTT assay; type: functional, cell-based; details: MCF7, 48 h
L02 = assay: Cytotoxicity against human L02 cells measured after 48 hrs by MTT assay; type: cell-based; details: L02, 48 h
MCF7 [3] = assay: Cell cycle arrest in human MCF7 cells assessed as accumulation at G2 phase at 5 uM measured after 48 hrs by propidium iodide staining based flow cytometry (reference value: 23.25%); type: functional
MCF7 [4] = assay: Cell cycle arrest in human MCF7 cells assessed as accumulation at G2 phase at 2.5 uM measured after 48 hrs by propidium iodide staining based flow cytometry (reference value: 23.25%); type: functional
MCF7 [5] = assay: Cell cycle arrest in human MCF7 cells assessed as accumulation at S phase at 2.5 uM measured after 48 hrs by propidium iodide staining based flow cytometry (reference value: 24.31%); type: functional
MCF7 [6] = assay: Cell cycle arrest in human MCF7 cells assessed as accumulation at S phase at 10 uM measured after 48 hrs by propidium iodide staining based flow cytometry (reference value: 24.31%); type: functional
MCF7 [7] = assay: Cell cycle arrest in human MCF7 cells assessed as accumulation at G1 phase at 2.5 uM measured after 48 hrs by propidium iodide staining based flow cytometry (reference value: 52.44%); type: functional
MCF7 [8] = assay: Cell cycle arrest in human MCF7 cells assessed as accumulation at G2 phase at 10 uM measured after 48 hrs by propidium iodide staining based flow cytometry (reference value: 23.25%); type: functional
MCF7 [9] = assay: Cell cycle arrest in human MCF7 cells assessed as accumulation at S phase at 5 uM measured after 48 hrs by propidium iodide staining based flow cytometry (reference value: 24.31%); type: functional
MCF7 [10] = assay: Cell cycle arrest in human MCF7 cells assessed as accumulation at G1 phase at 5 uM measured after 48 hrs by propidium iodide staining based flow cytometry (reference value: 52.44%); type: functional
MCF7 [11] = assay: Potency index, ratio of artemisinin IC50 to test compound IC50 for human MCF7 cells; type: functional
MCF7 [12] = assay: Cell cycle arrest in human MCF7 cells assessed as accumulation at G1 phase at 10 uM measured after 48 hrs by propidium iodide staining based flow cytometry (reference value: 52.44%); type: functional

Row | Compound | IC50 (HepG2) [µM] | IC50 (A549) [µM] | fold change (FC) (NCI/ADR-RES) | inhibition at 48 h, 5 µM [1] [%] | IC50 (MDA-MB-231) [µM] | IC50 (MCF7 [2]) [µM] | IC50 (L02) [µM] | further results
1 | C[C@@H]1CC[C@@H]2[C@]34OO[C@](C)(CC[C@@H]13)O[C@H]4OC[C@]2(C)O |  |  |  |  |  |  |  | IC50 (ADR5000 cell line): 90 µM; IC50 (CCRF-CEM): 156 µM
2 | C[C@H]1[C@H](OC(=O)CCC(=O)OCCCCn2cnc(C#N)c2C#N)O[C@@H]2O[C@@]3(C)CC[C@H]4[C@H](C)CC[C@@H]1[C@@]24OO3 | 32.3 | 17.9 | 4.1 | 11.2 | 50.8 | 15.2 | 42.9 | 
3 | C[C@H]1[C@H](OC(=O)CCC(=O)OCCCCn2cc(C#N)nc2Cl)O[C@@H]2O[C@@]3(C)CC[C@H]4[C@H](C)CC[C@@H]1[C@@]24OO3 | 40.2 | 23.3 | 11.17 | 16.6 | > 100 | 13.6 | 52.3 | 
4 | C[C@H]1[C@H](OC(=O)CCC(=O)OCCCn2ccnc2[N+](=O)[O-])O[C@@H]2O[C@@]3(C)CC[C@H]4[C@H](C)CC[C@@H]1[C@@]24OO3 | 39.3 | 20.9 | 16.69 | 22.3 | > 100 | 12.9 | 46.4 | 
5 | C[C@@H]1CC[C@H]2[C@@H](C)C(OC(=O)c3c[nH]c4ccccc34)O[C@@H]3O[C@@]4(C)CC[C@@H]1[C@]32OO4 (stereo not given in full) | 15.2 | 12.9 | 95.85 | 18.9 | 58.9 | 6.78 | 42.6 | 
6 | C[C@H]1[C@H](OC(=O)CCC(=O)OCCCCn2cnc([N+](=O)[O-])c2)O[C@@H]2O[C@@]3(C)CC[C@H]4[C@H](C)CC[C@@H]1[C@@]24OO3 | 30.2 | 25.8 | 26.06 | 20.2 | 57 | 15.4 | 77.5 | 
7 | C[C@H]1[C@H](OC(=O)CCC(=O)OCCn2ccnc2[N+](=O)[O-])O[C@@H]2O[C@@]3(C)CC[C@H]4[C@H](C)CC[C@@H]1[C@@]24OO3 | 23.7 | 14 | 27.09 | 13.5 | 39.4 | 16.4 | 50.2 | 
8 | C[C@H]1[C@H](OC(=O)CCC(=O)OCCn2cnc(C#N)c2C#N)O[C@@H]2O[C@@]3(C)CC[C@H]4[C@H](C)CC[C@@H]1[C@@]24OO3 | 25.6 | 12.4 | 5.41 | 13.7 | > 100 | 10.8 | 49.1 | 
9 | C[C@H]1[C@H](OC(=O)CCC(=O)OCCn2cnc([N+](=O)[O-])c2)O[C@@H]2O[C@@]3(C)CC[C@H]4[C@H](C)CC[C@@H]1[C@@]24OO3 | 34.9 | 12.7 | 43.48 | 7.78 | 82.3 | 14 | 56.2 | 
10 | C[C@@H]1CC[C@H]2[C@@H](C)C(OC(=O)/C=C/c3cc4ccccc4[nH]3)O[C@@H]3O[C@@]4(C)CC[C@@H]1[C@]32OO4 (stereo not given in full) | > 50 | > 50 | 61.05 | 5.38 | > 100 | > 50 | > 100 | 
11 | C[C@H]1[C@H](OC(=O)CCC(=O)OCCn2cc(C#N)nc2Cl)O[C@@H]2O[C@@]3(C)CC[C@H]4[C@H](C)CC[C@@H]1[C@@]24OO3 | 44.3 | 20.7 | 9.24 | 21.3 | 66.4 | 17.5 | 61.2 | 
12 | C[C@H]1[C@H](OC(=O)CCC(=O)OCCCCn2ccnc2[N+](=O)[O-])O[C@@H]2O[C@@]3(C)CC[C@H]4[C@H](C)CC[C@@H]1[C@@]24OO3 | 21.2 | 16.5 | 14.71 | 19.8 | 85.2 | 9.78 | 45.7 | 
13 | COc1ccc2[nH]cc(C(=O)OC3O[C@@H]4O[C@@]5(C)CC[C@H]6[C@H](C)CC[C@@H]([C@H]3C)[C@@]46OO5)c2c1 (stereo not given in full) | 27.7 | 13.4 | 71.89 | 19.8 | 70.4 | 14.5 | 36.4 | 
14 | C[C@H]1[C@H](OC(=O)CCC(=O)OCCCn2cc(C#N)nc2Cl)O[C@@H]2O[C@@]3(C)CC[C@H]4[C@H](C)CC[C@@H]1[C@@]24OO3 | > 50 | 19.6 | 8.51 | 12.8 | > 100 | 13.8 | 72.8 | 
15 | C[C@H]1[C@H](OC(=O)CCC(=O)OCCCn2cnc(Br)c2)O[C@@H]2O[C@@]3(C)CC[C@H]4[C@H](C)CC[C@@H]1[C@@]24OO3 | 41.6 | 26 | 5.6 | 23.2 | 80.9 | 12.4 | > 100 | 
16 | C[C@H]1[C@H](OC(=O)CCC(=O)OCCCn2cnc([N+](=O)[O-])c2)O[C@@H]2O[C@@]3(C)CC[C@H]4[C@H](C)CC[C@@H]1[C@@]24OO3 | 33.3 | 20 | 15.72 | 22.3 | 80.9 | 12.7 | 34.3 | 
17 | C[C@@H]1CC[C@H]2[C@@H](C)C(OC(=O)c3c[nH]c4ccc(Cl)cc34)O[C@@H]3O[C@@]4(C)CC[C@@H]1[C@]32OO4 (stereo not given in full) | 10.8 | 6.17 | 117 | 32.1 | > 100 | 5.25 | 31 | Activity (MCF7 [3]): 34.35%; Activity (MCF7 [4]): 27.4%; Activity (MCF7 [5]): 24.24%; Activity (MCF7 [6]): 21.41%; Activity (MCF7 [7]): 48.36%; Activity (MCF7 [8]): 38.97%; Activity (MCF7 [9]): 21.89%; Activity (MCF7 [10]): 43.76%; Ratio IC50 (MCF7 [11]): 10; Activity (MCF7 [12]): 39.61%
18 | C[C@H]1[C@H](OC(=O)CCC(=O)OCCCCn2cnc(Br)c2)O[C@@H]2O[C@@]3(C)CC[C@H]4[C@H](C)CC[C@@H]1[C@@]24OO3 | 35.9 | 18.9 | 5.56 | 8.95 | > 100 | 11.6 | 41.3 | 
19 | C[C@H]1[C@H](OC(=O)CCC(=O)OCCn2cnc(Br)c2)O[C@@H]2O[C@@]3(C)CC[C@H]4[C@H](C)CC[C@@H]1[C@@]24OO3 | 31.9 | 24.7 | 6.37 | 12.4 | > 100 | 13.1 | 66.9 | 
20 | C[C@H]1[C@H](OC(=O)CCC(=O)OCCCn2cnc(C#N)c2C#N)O[C@@H]2O[C@@]3(C)CC[C@H]4[C@H](C)CC[C@@H]1[C@@]24OO3 | > 50 | 26.7 | 4.37 | 15 | 93.2 | 16.2 | 66.2 | 
21 | COc1ccc(CCN(C)CCCC(C#N)(c2ccc(OC)c(OC)c2)C(C)C)cc1OC (stereo not given) |  |  | 39.62 |  |  |  |  | 
22 | C[C@@H]1CC[C@H]2[C@@H](C)C(=O)O[C@@H]3O[C@@]4(C)CC[C@@H]1[C@]32OO4 [ARTEMISININ] | > 50 | > 50 |  |  | > 100 | > 50 | > 100 | 
23 | C[C@H]1[C@@H](O)O[C@@H]2O[C@@]3(C)CC[C@H]4[C@H](C)CC[C@@H]1[C@@]24OO3 [ARTENIMOL] | 31.7 | 45.3 |  |  | 58.7 | 34.3 | 40.2 | IC50 (ADR5000 cell line): 1.84 µM; IC50 (CCRF-CEM): 0.87 µM
24 | C[C@H]1[C@H](OC(=O)CCC(=O)O)O[C@@H]2O[C@@]3(C)CC[C@H]4[C@H](C)CC[C@@H]1[C@@]24OO3 [ARTESUNATE] | 39.9 | 50.7 |  |  | 75.7 | 38.7 | 72.2 | 
25 | COc1cccc2c1C(=O)c1c(O)c3c(c(O)c1C2=O)C[C@@](O)(C(=O)CO)C[C@@H]3O[C@H]1C[C@H](N)[C@H](O)[C@H](C)O1 [DOXORUBICIN HYDROCHLORIDE] |  | 1.13 |  |  |  |  | 0.79 | 
